# Measured values published in US20260374739A1, “SMALL MOLECULAR WEIGHT CHEMICAL COMPOUND TO ANTAGONIZE EPH-EPHRIN TETRAMERIZATION AND INHIBIT BIDIRECTIONAL SIGNALING” (THE BOARD OF REGENTS OF THE UNIVERSITY OF TEXAS SYSTEM, priority 2022, published 2026).
# Entries after “also recorded” stand apart in the source; their conditions may differ.
# Columns and labels:
# [1] = tested on: CFA-induced thermal pain in mice; experiment: CFA inflammatory pain, thermal; assay type: in vivo, mouse
# Description: A total of five wildtype (WT) male mice were injected IP with A20 free base (3 mice at 10 mg/kg and 2 mice at 20 mg/kg in 6% DMSO/94% sunflower seed oil, data is pooled) and three WT males with vehicle (V) only as control. As indicated, injections of A20 or V started two days prior to the single injection of CFA into one of the two hind paws to initiate inflammatory pain, and injections continued for two additional days. For each day's examination of withdrawal latency, both left and right hind paws were subjected to 6-12 thermal pain measurements to obtain an average response time for each mouse. Mice were at 14 weeks age when experiment started.
# Wildtype (WT) female mice were injected IP with either A20 free base (20 mg/kg in 6% DMSO/94% sunflower seed oil), with MCD kinase inhibitor (10 mg/kg in PBS), or vehicle only (6% DMSO/94% sunflower seed oil). Injections of A20, MCD, or V started two days prior to a single injection of CFA into one of the two hind paws to initiate inflammatory pain, and injections continued for two additional days. For each day's examination of withdrawal latency, both left and right hind paws were subjected to 6-12 thermal pain measurements to obtain an average response time, and for each mouse the average of the uninjured hind paw response time was divided by the average of the injured side response time to obtain a pain response ratio for each mouse which was then plotted and subjected to indicated statistical analysis. Data shown were those obtained at day +3 post-CFA. Mice were at 20 weeks age when experiment started.
# FIG. 63 depicts tests of salt versions of compounds A20 and QPB4-Bn showing both are effective at reducing inflammatory pain when injected after the pain-generating insult and when using PBS as the vehicle. Wild-type (WT) male and female mice were injected IP with either A20.2×HCl salt (20 mg/kg in PBS), QPB4-Bn·2×HCl salt (20 mg/kg in PBS), or vehicle only (PBS). Here, the first injection of A20, QPB4-Bn, or V started 15 minutes after CFA was injected into one of the two hind paws to initiate inflammatory pain, and injections continued every 12 hours for three additional days. For each day's examination of withdrawal latency, both left and right hind paws were subjected to 6-12 thermal pain measurements to obtain an average response time, and for each mouse the average of the uninjured hind paw response time was divided by the average of the injured side response time to obtain a pain response ratio for each mouse which was then plotted and subjected to indicated statistical analysis. Data shown were those obtained at day +3 post-CFA. Mice were at 8 weeks age when experiment started.
# FIG. 64 depicts tests of two more A20 analogs, salt forms of QPB4 and QPP (QPP127) show both are effective at reducing inflammatory pain when injected after the pain-generating insult and when using PBS as the vehicle. Wild-type (WT) female mice were injected IP with QPB4.2×HCl salt (20 mg/kg in PBS), QPP (QPP127)·2×HCl salt (20 mg/kg in PBS), or vehicle only (PBS). Here, the first injection of QPB4, QPP (QPP127), or vehicle started 15 minutes after CFA was injected into one of the two hind paws to initiate inflammatory pain, and injections continued every 12 hours for three additional days. For each day's examination of withdrawal latency, both left and right hind paws were subjected to 6-12 thermal pain measurements to obtain an average response time, and for each mouse the average of the uninjured hind paw response time was divided by the average of the injured side response time to obtain a pain response ratio for each mouse which was then plotted and subjected to indicated statistical analysis. Data shown were those obtained at day +3 post-CFA. Mice were at 12 weeks age when experiment started.
# A20 was therefore tested in 14-week-old CD1 mice for enhanced thermal sensitivity induced by CFA. […]
# [2] = tested on: Zymosan-induced thermal pain in mice; experiment: Zymosan inflammatory pain, thermal; assay type: in vivo, mouse; conditions: PO; for thermal pain ratio: A20 experiment vehicle close to 6
# Description: An alternative and potentially faster pain model using Zymosin (an inflammatory agent like CFA) to induce inflammatory pain was tested. […] Mice were first acclimated to the pain testing set ups and then subjected to baseline mechanical and thermal pain measurements. Early in the morning the following day, the left hind paws were injected subcutaneously with 30 μL of Zymosan (5 mg/ml in PBS; Z4250, Sigma-Aldrich). Two hours after the Zymosan injection, the left hind paws were assessed for thermal pain using Hargreaves device (2-4 hr), and then left paws tested for mechanical pain using VF filaments (4-6 hr), and then again for thermal pain (6-8 hr). Data from two independent experiments were pooled to increase the n values for the three different genotypes. […] Thermal pain increased in all group following Zymosan injury as indicated by a decreased average response time to the infrared heat source in all animals assessed, and the level of pain intensified from the 2-4 hr testing period to the 6-8 hr period.
# Inflammatory pain was induced by subcutaneous injection of 30 μl of 5 mg/ml Zymosan into the right hind paws of 12 wild-type adult male mice (5-6 months age, 129×1/SvJ background) that in previous days were acclimated to the testing chambers and assessed to obtain baseline pain measurements. After 15 min, mice were orally dosed with either vehicle only (97% PBS/3% DMSO) or with 20, 10, or 5 mg/kg of A20 (2×·HCl salt in vehicle), 3 mice for each condition. Two hours after Zymosan injection, the right hind paws were assessed for thermal pain using Hargreaves device (2-4 hr), then mice were orally dosed again with vehicle only or A20 chemicals, and then right paws tested for mechanical pain using VF filaments (4-6 hr), and then again for thermal pain (6-8 hr).
# Inflammatory pain was induced by subcutaneous injection of 30 μl of 5 mg/ml Zymosan into the left hind paws of 9 wild-type adult males (5-6 months age, 129/CD1 mixed background) that in previous days were acclimated to the testing chambers and assessed to obtain baseline pain measurements. After 15 min, mice were orally dosed with either vehicle only (97% PBS/3% DMSO) or with 20 mg/kg of 3511-I (2×·HCl salt in vehicle), or 20 mg/kg BQPB4 (3×·HCl salt in 97% sunflower seed oil/3% DMSO), 3 mice for each condition. Two hours after Zymosan injection, the left […] hind paws were assessed for mechanical pain using VF filaments (2-4 hr), then mice were orally dosed again with vehicle only or A20 chemicals, and then left hind paws tested for thermal pain using Hargreaves device (4-6 hr), and then again for mechanical pain (6-8 hr).
# Inflammatory pain was induced by subcutaneous injection of Zymosan into left hind paws, followed 15 min later with an oral dose of either vehicle or 20, 10, or 5 mg/kg of BQPB4 (3×·HCl salt in 97% sunflower seed oil/3% DMSO). Two hours after Zymosan injection, the left hind paws were assessed for mechanical pain using VF filaments (2-4 hr), then mice were orally dosed again with vehicle or BQPB4 chemical, and then hind paws tested for thermal pain using Hargreaves device (4-6 hr), and then tested again for mechanical pain (6-8 hr). […] Calculation of pain ratios confirmed the significant dose-dependent effects of BQPB4 at blunting thermal pain (FIG. 92B).
# [3] = in vitro plasma stability; assay type: in vitro ADME; conditions: mouse plasma; for plasma stability: free base or salt
# Description: FIG. 46 depicts tests of A20 and A20-I free base and salt forms for in vitro plasma stability. Compounds were provided to the UT Southwestern PK Core facility and tested for stability when incubated with mouse plasma.
# To examine the drug-like nature of the disclosed compounds, tests for solubility was conducted.
compound,measurement,setting,value
"Oc1ccc(CN2CCN(c3ccc(Br)cc3)CC2)c2cccnc12 [Compound 26, 5-((4-(4-bromophenyl)piperazin-1-yl)methyl)quinolin-8-ol]",thermal pain,[1]; dosed after CFA,ability to blunt the enhanced sensitivity produced by the inflammatory pain insult
"Oc1c(Br)cc(CN2CCN(c3ccc(Br)cc3)CC2)c2cccnc12 [Compound 28, 7-bromo-5-((4-(4-bromophenyl)piperazin-1-yl)methyl)quinolin-8-ol]",thermal pain ratio,[2],below 2
same,thermal pain,[2]; listed as BQPB4,"significantly less thermal pain; also recorded: the 20 mg/kg dose produced the strongest and most significant reduction in pain, followed by the 10 mg/kg dose, and then the 5 mg/kg dose"
"Oc1ccc(CN2CCN(Cc3ccc(Br)cc3)CC2)c2cccnc12 [Compound 42, 5-((4-(4-bromobenzyl)piperazin-1-yl)methyl)quinolin-8-ol]",thermal pain,[1]; dosed after CFA,ability to blunt the enhanced sensitivity produced by the inflammatory pain insult
"Oc1c(I)cc(CN2CCOCC2)c2cccnc12 [Compound 7, 7-iodo-5-(morpholinomethyl)quinolin-8-ol]",plasma half-life longer than A20,[3],3-5 times
same,plasma stability,[3],superior stability
"COc1ccccc1N1CCN(Cc2cc(I)c(O)c3ncccc23)CC1 [Compound 71, 7-iodo-5-((4-(2-methoxyphenyl)piperazin-1-yl)methyl)quinolin-8-ol]",thermal pain,[2],significantly less thermal pain
same,thermal pain ratio,[2],~3
"Oc1ccc(CN2CCN(c3ccc(Br)cn3)CC2)c2cccnc12 [Compound 33, 5-((4-(5-bromopyridin-2-yl)piperazin-1-yl)methyl)quinolin-8-ol]",thermal pain,[1]; dosed after CFA,ability to blunt the enhanced sensitivity produced by the inflammatory pain insult
"Oc1c(Br)cc(CN2CCOCC2)c2cccnc12 [Compound 5, 7-bromo-5-(morpholinomethyl)quinolin-8-ol]",plasma stability,[3],quite stable
same,thermal pain ratio,"[1]; IP or PO 20 mg/kg, vehicle 4 or above",< 2
same,thermal pain,"[1]; IP, dosing started two days before CFA, listed as A20",remarkably blunted; also recorded: appears to be a more effective agent
same,thermal pain,"[1]; dosed after CFA, listed as A20",ability to blunt the enhanced sensitivity produced by the inflammatory pain insult; also recorded: reduced sensitivity to the infrared heat source compared to the vehicle treated mice
same,thermal pain,[2],significant reductions in both mechanical and thermal pain
same,thermal pain ratio,[2],around 3
